Like-named read-outs stand apart in the source and are kept apart here.
Test system: 280 human cancer cell lines
Test: OncoPanel cell proliferation assay (10-day)
Format: cell-based
Details: Homo sapiens; for EC50: read-out: Cell Count EC50; for GI50: read-out: Cell Count GI50; for IC50: read-out: Cell Count IC50
[1] = NCI-H292, NCI-H292, Lung - NSCLC
[2] = NCI-H295R, Endocrine - Adrenal gland
[3] = NCI-H441, NCIH441, Lung - NSCLC
[4] = NCI-H460, NCI-H460, Lung - NSCLC
[5] = NCI-H520, NCI-H520, Lung - NSCLC
[6] = NCI-H596, NCI-H596, Lung - NSCLC
[7] = NCI-H661, NCI-H661, Lung - NSCLC
[8] = NTERA-2-cl-D1, NTERA-2 cl.D1, Testis
[9] = OVCAR-3, OVCAR3, Female GU - Ovary
[10] = RPMI-7951, RPMI-7951, Skin (Melanoma)
[11] = SAOS-2, SaOS2, Soft Tissue - Osteosarcoma

CC(C)=CCC[C@H](C)[C@@H]1CC[C@@H](C)c2c1cc(C)c(O)c2O [Compound 4, 7,8-dihydroxyserrulat-14-ene] was tested, and the EC50 [1] was 9.21 µM, the GI50 [1] was 9.19 µM and the IC50 [1] was 9.21 µM. It also gave an EC50 [2] of 25.6 µM, a GI50 [2] of 21.6 µM and an IC50 [2] of 25.6 µM. It also gave an EC50 [3] of 4.76 µM, a GI50 [3] of over 30 µM and an IC50 [3] of over 30 µM. For the same compound, the EC50 (NCI-H446, NCIH446, Lung - SCLC) was 7.81 µM, the GI50 (NCI-H446, NCIH446, Lung - SCLC) was 7.62 µM and the IC50 (NCI-H446, NCIH446, Lung - SCLC) was 7.81 µM. It also gave an EC50 [4] of 12.2 µM, a GI50 [4] of 13 µM and an IC50 [4] of 13 µM. For the same compound, the EC50 (NCI-H508, NCI-H508, Colon) was over 30 µM, the GI50 (NCI-H508, NCI-H508, Colon) was over 30 µM and the IC50 (NCI-H508, NCI-H508, Colon) was over 30 µM. The EC50 [5] was 20.8 µM, the GI50 [5] was 20.6 µM and the IC50 [5] was 20.8 µM. It also gave an EC50 [6] of 28.2 µM, a GI50 [6] of over 30 µM and an IC50 [6] of over 30 µM. The EC50 [7] was 5.94 µM, the GI50 [7] was 5.86 µM and the IC50 [7] was 5.94 µM. The EC50 (NCI-H747, NCI-H747, Colon) was 28.1 µM, the GI50 (NCI-H747, NCI-H747, Colon) was 28.1 µM and the IC50 (NCI-H747, NCI-H747, Colon) was 28.2 µM. For the same compound, the EC50 [8] was 7.41 µM, the GI50 [8] was 7.39 µM and the IC50 [8] was 7.41 µM. It also gave an EC50 (OCUG-1, OCUG-1, Liver) of 15.6 µM, a GI50 (OCUG-1, OCUG-1, Liver) of 15.5 µM and an IC50 (OCUG-1, OCUG-1, Liver) of 15.6 µM. The EC50 (OE19, OE19, Head and Neck) was 20.7 µM, the GI50 (OE19, OE19, Head and Neck) was 20.5 µM and the IC50 (OE19, OE19, Head and Neck) was 20.7 µM. It also gave an EC50 (OE21, OE21, Head and Neck) of 12.7 µM, a GI50 (OE21, OE21, Head and Neck) of 12.7 µM and an IC50 (OE21, OE21, Head and Neck) of 12.7 µM. The EC50 [9] was 15.6 µM, the GI50 [9] was 14.9 µM and the IC50 [9] was 15.6 µM. The EC50 (PA-1, Female GU - Ovary) was 7.89 µM, the GI50 (PA-1, Female GU - Ovary) was 7.89 µM and the IC50 (PA-1, Female GU - Ovary) was 7.9 µM. It also gave an EC50 (PANC-1, PANC-1, Pancreas) of 11.7 µM, a GI50 (PANC-1, PANC-1, Pancreas) of 11.6 µM and an IC50 (PANC-1, PANC-1, Pancreas) of 11.7 µM. It also gave an EC50 (PC-3, Prostate) of 7.71 µM, a GI50 (PC-3, Prostate) of 7.64 µM and an IC50 (PC-3, Prostate) of 7.71 µM. The EC50 (PFSK-1, PFSK-1, CNS - Glioma) was 3.82 µM, the GI50 (PFSK-1, PFSK-1, CNS - Glioma) was 3.8 µM and the IC50 (PFSK-1, PFSK-1, CNS - Glioma) was 3.82 µM. For the same compound, the EC50 (PSN1, PSN-1, Pancreas) was 5.04 µM, the GI50 (PSN1, PSN-1, Pancreas) was 5.04 µM and the IC50 (PSN1, PSN-1, Pancreas) was 5.04 µM. For the same compound, the EC50 (RD, Soft Tissue - Sarcoma) was 5.19 µM, the GI50 (RD, Soft Tissue - Sarcoma) was 5.17 µM and the IC50 (RD, Soft Tissue - Sarcoma) was 5.19 µM. For the same compound, the EC50 (RKO, Colon) was 12 µM, the GI50 (RKO, Colon) was 12 µM and the IC50 (RKO, Colon) was 12 µM. For the same compound, the EC50 (RKOE6, RKOE6, Colon) was 6.79 µM, the GI50 (RKOE6, RKOE6, Colon) was 6.76 µM and the IC50 (RKOE6, RKOE6, Colon) was 6.79 µM. It also gave an EC50 (RPMI-6666, RPMI 6666, Lymphoma) of 23.1 µM, a GI50 (RPMI-6666, RPMI 6666, Lymphoma) of 23 µM and an IC50 (RPMI-6666, RPMI 6666, Lymphoma) of 23.1 µM. It also gave an EC50 [10] of 9.98 µM, a GI50 [10] of 9.96 µM and an IC50 [10] of 9.98 µM. The EC50 (RPMI-8226, RPMI 8226, Myeloma) was 3.03 µM, the GI50 (RPMI-8226, RPMI 8226, Myeloma) was 3.03 µM and the IC50 (RPMI-8226, RPMI 8226, Myeloma) was 3.04 µM. The EC50 (RS4-11, RS4, 11, Leukemia) was 4.15 µM, the GI50 (RS4-11, RS4, 11, Leukemia) was 4.16 µM and the IC50 (RS4-11, RS4, 11, Leukemia) was 4.23 µM. The EC50 (Raji, Lymphoma) was 3.92 µM, the GI50 (Raji, Lymphoma) was 3.92 µM and the IC50 (Raji, Lymphoma) was 3.92 µM. The EC50 (Ramos, Ramos (RA 1), Lymphoma) was 4.17 µM, the GI50 (Ramos, Ramos (RA 1), Lymphoma) was 4.17 µM and the IC50 (Ramos, Ramos (RA 1), Lymphoma) was 4.17 µM. For the same compound, the EC50 [11] was 10.6 µM, the GI50 [11] was 10.7 µM and the IC50 [11] was 10.7 µM. It also gave an EC50 (SCC-4, SCC-4, Head and Neck) of 15.8 µM, a GI50 (SCC-4, SCC-4, Head and Neck) of 15.5 µM and an IC50 (SCC-4, SCC-4, Head and Neck) of 15.8 µM. For the same compound, the EC50 (SCC-9, SCC-9, Head and Neck) was 16.5 µM, the GI50 (SCC-9, SCC-9, Head and Neck) was 16.4 µM and the IC50 (SCC-9, SCC-9, Head and Neck) was 16.5 µM. The EC50 (SCC-25, SCC-25, Head and Neck) was 25 µM, the GI50 (SCC-25, SCC-25, Head and Neck) was 25 µM and the IC50 (SCC-25, SCC-25, Head and Neck) was 25 µM. For the same compound, the EC50 (SCaBER, Bladder) was 16.9 µM and the GI50 (SCaBER, Bladder) was 16.8 µM.

Source: patent publication US11331299B2, “Medicinal use of serrulatane diterpenes” (The University of Sydney, priority 2016, dated 2022)
